Assays:
[1] = test system: HIF-1α; test: Western blot of HIF-1α in Muller cells (MIO-M1) under hypoxia; type: cell-based; conditions: MIO-M1, hypoxic chamber 1% O2 (FIG. 8)
Experimental: (§1) Muller cells (MIO-M1) were cultured at 37° C. and 5% CO2, and DMEM-low glucose (Sigma) including 10% fetal bovine serum and 1% penicillin & streptomycin was used as the medium. A hypoxic chamber was maintained at 37° C., 5% CO2 and 1% O2.
Muller cells (MIO-M1) were seeded in the number of 4×10^5 on a 60-millimeter plate and cultured in 3 ml of medium for 24 hours. The next day, the cells were treated with SMX, a mitochondrial heat shock protein 90 (TRAP1) inhibitor according to the concentrations shown in the drawing and cultured in a hypoxic chamber for 6 hours. Whole cell lysates were made from the cultured cells, electrophoresed, transferred to a PVDF membrane, and then treated with a primary antibody at 4° C. for 18 hours. The next day, the whole cell lysates were treated with a secondary antibody for 1 hour and protein expression was analyzed using a western blotting detection reagent.
as §1, with “O2. […] The next day, the whole cell lysates were treated with a secondary antibody for 1 hour and protein expression was analyzed using a western blotting detection reagent.” for “O2.”

[2] = test system: HIF-1α; test: Western blot of HIF-1α in ARPE-19 cells under hypoxia; type: cell-based, Human; conditions: ARPE-19, 1 μM, 1% oxygen, 6 hours (FIG. 26)
Experimental: Human retinal pigmented epithelium ARPE-19 cells were seeded in the number of 3×10^5 on a 60-millimeter plate, and cultured at 37° C. and 5% CO2, and DMEM/F-12 including 10% fetal bovine serum and 1% penicillin & streptomycin was used as the medium for 2 days. Two days later, the cells were treated with DMSO (0.5%), SMx, SB-U005, SB-U009, SB-U011 and SB-U012 at 1 μM and cultured under 1% oxygen conditions in a hypoxia chamber for 6 hours, and then a western blot experiment was performed.
After the cell culture experiment was completed, the cell culture solution was removed, the cells was washed once with cold PBS, and a RIPA solution (50 mM Tris-HCl pH 7.4, 150 mM NaCl, 0.25% Na-deoxycholate, 1% NP-40) was added thereto to harvest cells using a cell scraper. After the cells were sufficiently lysed, a 6× sample buffer was mixed with a cell suspension obtained by low-temperature centrifugation, the resulting mixture was boiled at 95° C. for 5 minutes, and then 12% SDS-PAGE was performed. […]
Thereafter, the membrane was washed twice with TBS-T (Tris-buffered saline+Tween-20), and then reacted with a secondary antibody (diluted at 1:5,000) at room temperature for 1 hour. After the membrane was washed twice with TBS-T, changes in protein expression level were measured by a Chemidoc system (GE, LAS 4000) using a Clarity Western ECL substrate (Bio-Rad).

[3] = test system: oxygen-induced retinopathy mouse model; test: Oxygen-induced retinopathy mouse model, intraocular injection, retinal vascular analysis; type: in vivo, C57BL/6J mice; conditions: 1 ul of 0.15 mM intraocularly injected once at P12, analysis P17 (FIG. 17)
Experimental: An oxygen-induced retinopathy mouse model was induced by rearing young C57BL/6J (Hyochang Science Inc.) mice aged 7 days after birth (P7) in a hyperoxic chamber (Coy Lab. in vivo chamber, 75% O2) for 5 days (P12), and then rearing the mice in a normoxic environment for 5 days (P17). After the young mice were removed from the hyperoxic chamber (P12), 1 ul of SMX was intraocularly injected once at a concentration of 0.15 mM (0.1% DMSO). The SMX used for ocular injection was used after being diluted in phosphate buffer saline (1×PBS) to 0.1%, and 0.1% DMSO in 1×pbs was used in control mice. In the case of Eylea (aflibercept, anti-VEGFab), 40 ug was diluted in 1 ul and 1 ul was intraocularly injected.
The oxygen-induced retinopathy mouse model was formed, and then perfused with 1×PBS and 4% PFA. After mouse eyes were extracted and fixed in 4% PFA, the retinas were isolated. The isolated retinas were washed with 1×PBS, and then blocked (0.1% BSA, 0.1% Triton X-100 in 1×PBS) at room temperature for 1 hour. The retinas were treated with a CD31 blood-vessel staining antibody (CD31, Cell Signaling, 1:100) overnight at 4° C. […] Blood vessel staining was analyzed under a fluorescence microscope (Zen, Axio Zoom). […]
The oxygen-induced retinopathy mouse model was formed, and then perfused with 1×PBS and 4% PFA. […] Blood vessel staining was analyzed under a fluorescence microscope (Zen, Axio Zoom). […]

**Q.** Which “expression of HIF-1α” value [1] does the source give for `COC1=C(OC)C(=O)C(CCCCCCCCCC[P+](c2ccccc2)(c2ccccc2)c2ccccc2)=C(C)C1=O` [SMx] here?
**A.** suppressed

**Q.** And the “suppression of HIF-1α” value [2]?
**A.** effectively suppressed

**Q.** And the “avascular area of the retina” value [3]?
**A.** significantly reduced compared to the Eylea-injected mouse retina

**Q.** What about the “neovascular area of the retina” value [3] of the same compound?
**A.** reduced to the same level as that of the Eylea-injected mouse retina
